Measured values as given in paper PMC9782626, “Copper(II) Complexes of 5–Fluoro–Salicylaldehyde: Synthesis, Characterization, Antioxidant Properties, Interaction with DNA and Serum Albumins” (Molecules, 2022).

Legend:
[1] = DPPH radical scavenging assay; format: biochemical; conditions: compound 0.1 mM
Description: For the above reasons, the antioxidant ability of 5–F–saloH and Cu(II) complexes 1–5 has been evaluated via their scavenging activity towards DPPH and ABTS radicals, as well as the ability to reduce H2O2, and in comparison with that of well-known antioxidant agents such as nordihydroguaiaretic acid (NDGA), butylated hydroxytoluene (ΒHΤ), 6–hydroxy–2,5,7,8–tetramethylchromane–2–carboxylic acid (trolox) and L–ascorbic acid (these are the most commonly used standard reference antioxidant agents). The DPPH-radical assay was developed in the 1950s and this method has been used to assess the antioxidant capacity of several metal complexes. The DPPH–scavenging ability of compounds has often been related to their ability to prevent ageing, cancer and inflammation. The ability of a compound to scavenge the cationic ABTS radicals (ABTS^+●) has been considered a measure of its total antioxidant activity. Further, hydrogen peroxide has the ability to penetrate biological membranes and, although it is not very reactive itself, it can sometimes be toxic since it may give rise to hydroxyl radicals in cells. For this reason, the removal of H2O2 is very important for the protection of living systems. When a compound is incubated with H2O2 using a peroxidase assay system, the loss of H2O2 can be measured.
S1 Antioxidant activity assay
The antioxidant activity of the compounds was evaluated via their ability to scavenge in vitro free radicals such as DPPH and ABTS and to reduce H 2O2. All the experiments were carried out at least in triplicate and the standard deviation of absorbance was less than 10% of the mean.
S1.1 Determination of the reducing activity of the radical DPPH
To an ethanolic solution of DPPH (0.1 mM) an equal volume solution of the compounds (0.1 mM) in ethanol was added. Absolute ethanol was also used as control solution. The absorbance at 517 nm was recorded at room temperature after 30 and 60 min, in order to examine the possible existence of a potential time-dependence of the DPPH radical scavenging act iv ity [S 1]. The DPPH -scavenging activity of the compounds was expressed as the percentage reduction of the absorbance values of the initial DPPH solution ( DPPH%). N DGA and BHT were used as reference comp ounds. […]

[2] = biological target: T1, bovine serum albumin (BSA) (Bos taurus, UniProt P02769); experiment: Albumin binding by tryptophan fluorescence quenching (BSA); conditions: for ΔΙ/Ιο, quenching of the BSA fluorescence: BSA 3 μM, λex 295 nm; for % relative BSA fluorescence emission intensity I/Io remaining (% of initial): final value, pH 7.0; for BSA-binding constant K: Scatchard equation; for BSA-quenching constant kq: from Stern–Volmer plots, τo 10^-8 s
T1 construct: purchased Sigma–Aldrich Co
Description: Serum albumins are among the important proteins of the circulatory system. Their main role is to carry drugs and other bioactive small molecules through the bloodstream. BSA and HSA are structurally homologous albumins, having two and one tryptophan residues, respectively. The tryptophan residues of both albumins are responsible for the intense fluorescence emission band with λem,max = 342 nm for BSA and 350 nm for HSA, respectively, when their solutions are excited at 295 nm. […] The inner-filter effect was calculated with Equation (S4) and it was found too low to affect the measurements.
When the compounds were added to a solution of the albumins (3 μM), a significant quenching of the BSA (λem = 342 nm) and HSA (λem = 350 nm) fluorescence emission bands was observed (Figure 7) which was more pronounced in the case of BSA (Table 7 and Figure 8). […] The observed quenching may be ascribed to changes in the tryptophan environment of SA resulting from possible denaturation of their secondary structure, induced by the binding of the complexes to the albumins. […]
Io =1+ k τ [Q] =1+ K [Q] […]
S3Albumin -binding studies
In order to investigate if the compounds can bind to carrier proteins like serum albumins, we carried out albumin binding study by tryptophan fluorescence quenching experiments using bo vine serum albumin (BSA, 3 μM) in buffer (containing 15 mM trisodium citrate and 150 mM NaCl at pH 7.0). The quenching of the emission intensity of tryptophan residues of BSA at 343 nm was monitored using the co mpounds as que ncher s with increasing concentration [S4]. The fluo rescence emission spectra of the compounds were also recorded with λex = 295 nm. No fluorescence emission band was recorded and thus it was not related to the compounds . The influence of the inner-filter effect [S6] on the measurements wa s evaluated by equation S4.
Where Icorr = corrected intensity, Imeas = the measured intensity, c = the concentration of the quencher, d = the cuvette (1 cm), ε (λexc ) and ε(λe m) = the ε of the quencher at the excitation and the emission wavelength, respectively, as calculated from the UV-vis spectra of the […]
The Stern-Volmer and Scatchard graphs are used to study the interaction of the compounds with serum albumins. According to Stern-Volmer quenching equation (eq.
S2), where Io = the initial tryptophan fluorescence intensity of SA, I = the tryptophan fluorescence intensity of SA after the addition of the quencher, kq = the quenching […]
constant, KSV = the Stern-Volmer constant, τo = the average lifetime of SA without the quencher, and, tak ing as fluorescence lifet ime (τo) of tryptophan in SA at around 10-8 s [S 4] , KSV (in M -1) can be obtained by the slope of the diagram Io/I versus [compound] (Stern-Volmer plots), and subsequently the quenching (kq, in M -1s-1) may be calculated from eq.
From the Scatchard equation (eq. S5): […]
where n is the number of binding sites per albumin and K is the SA-binding constant (K, in M -1) is calculated from the slope in plots (ΔI/Io)/[complex] versus ΔI/Io and n is given by the ratio of y intercept to the slope [S7].
S1 Kontogiorgis, C.; Hadjipavlou–Lit ina, D. Biological Evaluat ion of Several Coumarin Derivatives Designed as Possible Anti–inflammatory/Antioxidant Agents. J. Enz. Inhib.
S2 Ruch, R.J.; Cheng, C.; Klaunig, J.E. Prevention of cytotoxicity and inhibition of intercellular communication by antioxidant catechins isolated from Chinese green tea.
S3 Wolfe, A.; Shimer, G.; Meehan, T. Polycyclic Aromatic Hydrocarbons Physically Intercalate into Duplex Regions of Denatured DNA. Biochemistry 1987, 26, 6392–6396.
S4 Lakowicz, J.R. Principles of Fluorescence Spectroscopy , 3rd ed.; Plenum Press: New […]
S5 Heller, D.P.; Greenstock, C.L. Fluorescence lifetime analysis of DNA intercalated ethid ium bromide and quench ing by free dye. Biophys. Chem.1994,50, 305–312.
S6 Stella, L.; Capodilupo, A.L.; Bietti, M. A reassessment of the association between […]
azulene and [60]fullerene. […]

T1 sequence (P02769 25-607): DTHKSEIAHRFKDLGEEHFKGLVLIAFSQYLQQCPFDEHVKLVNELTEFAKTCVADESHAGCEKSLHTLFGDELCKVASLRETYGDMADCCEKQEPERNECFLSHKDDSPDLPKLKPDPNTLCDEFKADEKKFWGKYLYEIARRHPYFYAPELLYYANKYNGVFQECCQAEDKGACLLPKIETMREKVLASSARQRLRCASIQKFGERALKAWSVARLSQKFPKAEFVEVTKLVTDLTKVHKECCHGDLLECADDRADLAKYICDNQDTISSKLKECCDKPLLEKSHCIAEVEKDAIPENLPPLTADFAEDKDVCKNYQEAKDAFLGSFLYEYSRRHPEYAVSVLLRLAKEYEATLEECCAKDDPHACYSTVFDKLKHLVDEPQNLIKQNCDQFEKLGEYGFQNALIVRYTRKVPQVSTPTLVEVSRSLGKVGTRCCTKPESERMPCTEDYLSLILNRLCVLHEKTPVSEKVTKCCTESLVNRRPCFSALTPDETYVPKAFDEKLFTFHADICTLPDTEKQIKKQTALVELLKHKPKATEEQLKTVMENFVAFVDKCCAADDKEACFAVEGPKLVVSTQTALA

Compound | DPPH% (30 min), % DPPH–scavenging ability [1] [%] | DPPH% (60 min), % DPPH–scavenging ability [1] [%] | ΔΙ/Ιο, quenching of the BSA fluorescence [2] [%] | % relative BSA fluorescence emission intensity I/Io remaining (% of initial) [2] [%] | BSA-binding constant K [2] | BSA-quenching constant kq [2]
O=Cc1cc(F)ccc1[O-].O=Cc1cc(F)ccc1[O-].[Cu+2] [Complex 1, [Cu(5–F–salo)2]] | 9.05 ± 0.54 | 10.79 ± 0.20 | 62.5 | 37.5 | 4.05 (±0.02) × 10^4 M^−1 | 9.38 (±0.28) × 10^12 M^−1 s^−1
O=Cc1cc(F)ccc1[O-].[Cl-].[Cu+2].c1ccc(Nc2ccccn2)nc1 [Complex 2, [Cu(5–F–salo)(bipyam)Cl]] | 7.54 ± 0.20 | 7.42 ± 0.50 | 54.0 | 46.0 | 3.15 (±0.18) × 10^4 M^−1 | 6.49 (±0.14) × 10^12 M^−1 s^−1
CO.Cc1ccc2ccc3ccc(C)nc3c2n1.O=Cc1cc(F)ccc1[O-].[Cl-].[Cu+2] [Complex 3, [Cu(5–F–salo)(neoc)Cl].CH3OH] | 7.42 ± 0.54 |  | 84.3 | 15.7 | 2.51 (±0.10) × 10^5 M^−1 | 2.75 (±0.10) × 10^13 M^−1 s^−1
O=Cc1cc(F)ccc1[O-].O=[N+]([O-])[O-].[Cu+2].c1cnc2c(c1)ccc1cccnc12 [Complex 4, [Cu(5–F–salo)(phen)(NO3)]] | 6.15 ± 0.33 | 4.64 ± 0.10 | 75.3 | 24.7 | 2.35 (±0.10) × 10^5 M^−1 | 1.62 (±0.06) × 10^13 M^−1 s^−1
O=Cc1cc(F)ccc1[O-].O=[N+]([O-])[O-].[Cu+2].c1ccc(-c2ccccn2)nc1 [Complex 5, [Cu(5–F–salo)(bipy)(NO3)]] | 7.19 ± 0.26 | 4.06 ± 0.20 | 68.3 |  | 3.23 (±0.12) × 10^5 M^−1 | 1.87 (±0.09) × 10^13 M^−1 s^−1
